Experimental findings from US20120142750A1, “INDOLEAMINE 2,3-DIOXYGENASE PATHWAYS IN THE GENERATION OF REGULATORY T CELLS” (Regents of the University of Minnesota, priority 2005, published 2012) are described below.

This experiment concerns CHOP in Tregs. Nature of the experiment: Intracellular CHOP expression in Tregs and OT-I cells cultured with TDLN pDCs. Conditions: 48 hours; with OVA antigen; no bystander cells. It counts as cell-based, mouse. The text has this:
Flow cytometry. Details of the staining protocols are given below. For CHOP and Foxp3 staining, assays were set up without the A1 bystander cells, so that the Tregs were the only CD4^+ cells in the system and thus could be unambiguously followed throughout the assay.
FAGS staining. Antibodies were from BD-Pharmingen unless otherwise noted. Anti-mouse CD25-APC conjugate (clone PC61, cat. #17-0251-81) was from eBioscience: This conjugate gave brighter signal and better separation of CD25^+ cells than other conjugates from other suppliers. For intracellular staining of CHOP, live cells were first blocked for 10 minutes with mouse Fc Block (BD Pharmingen) in 10% fetal calf serum medium, stained with anti-CD4-FITC for 30 minutes on ice, washed with PBS, then fixed and permeablized for 20 minutes in 250 ul Cytoperm/Cytofix solution (BD Pharmingen) on ice. All subsequent staining and wash steps were in BD Permwash solution. Fixed cells were stained with 1:100 dilution of monoclonal anti-gadd153/CHOP (sc-7351, Santa Cruz Biotechnology), washed, and stained with secondary monoclonal rat anti-mouse-IgG1-PE (#550083, BD Biosciences). […] For CHOP staining, assays were set up without A1 bystander cells, so that Tregs were the only CD4^+ cells, and thus could be unambiguously followed throughout the assay. […]

Take `Cn1cc(C[C@@H](N)C(=O)O)c2ccccc21` [Inhibitor 1MT, 1-methyl-D-tryptophan]: the “CHOP induction in Tregs (and OT-I)” value is on record as “abrogated”.
